# Experimental data published in EPA's ToxRefDB 2.
# What was measured:
# [1] = system: mouse; details: Subchronic oral toxicity in rodents, b6c3f1, Gavage/Intubation, dose end: 13 week, group: systemic
# [2] = system: rat; details: Subchronic oral toxicity in rodents, fischer, Gavage/Intubation, dose end: 13 week, group: systemic
# [3] = system: rat; details: Prenatal developmental toxicity study, sprague dawley, Oral, Gavage/Intubation, dose end: 15 GD, group: maternal
# [4] = system: rat; details: Subchronic oral toxicity in rodents, sprague dawley, Gavage/Intubation, dose end: 13 week, group: systemic
# [5] = system: dog; details: Chronic toxicity, beagle, Oral, Feed, dose end: 1 year, group: systemic
# [6] = system: rat; details: Combined chronic toxicity/carcinogenicity, sprague dawley, Oral, Feed, dose end: 2 year, group: systemic
# [7] = system: dog; details: Chronic toxicity, beagle, Oral, Feed, dose end: 53 week, group: systemic
# [8] = system: mouse; details: Carcinogenicity; cd1; Oral; Feed; dose end: 18 month; group: systemic; systemic / pathology microscopic / adrenal gland / eosinophilic focus + systemic / pathology microscopic / liver / hypertrophy + systemic / …
# [9] = system: dog; details: Subchronic oral toxicity in nonrodent, beagle, Feed, dose end: 13 week, group: systemic
# [10] = system: rat; details: Subchronic oral toxicity in rodents, sprague dawley, Feed, dose end: 3 month, group: systemic
# [11] = system: rat; details: Prenatal developmental toxicity study, sprague dawley, Oral, Gavage/Intubation, dose end: 15 GD
# [12] = system: rat; details: Combined chronic toxicity/carcinogenicity; sprague dawley; Oral; Feed; dose end: 2 year; group: systemic; systemic / hematology / lymphocyte / lymphocyte + systemic / hematology / neutrophils / neutrophils + systemic / in life observation / body …
# [13] = system: rat; details: Multigenerational reproductive toxicity study, sprague dawley, Oral, Feed, dose end: 2 generation
# [14] = system: mouse; details: Combined chronic toxicity/carcinogenicity, cd1, Oral, Feed, dose end: 24 month, group: systemic
# [15] = system: rabbit; details: Prenatal developmental toxicity study, new zealand white, Oral, Gavage/Intubation, dose end: 19 GD
# [16] = system: mouse; details: Subchronic oral toxicity in rodents, cd1, Feed, dose end: 3 month, group: systemic
# [17] = system: rabbit; details: Prenatal developmental toxicity study, new zealand white, Oral, Gavage/Intubation, dose end: 18 GD
# [18] = system: rat; details: Subchronic oral toxicity in rodents, Charles River CD, Feed, dose end: 90 day, group: systemic
# [19] = system: rat; details: Multigenerational reproductive toxicity study, sprague dawley, Oral, Gavage/Intubation, dose end: 2 generation
# [20] = system: rat; details: Combined chronic toxicity/carcinogenicity; sprague dawley; Oral; Feed; dose end: 104 week; group: systemic; systemic / clinical chemistry / alkaline phosphatase (alp/alk) / alkaline phosphatase (alp/alk) + systemic / clinical chemistry / aspartate …
# [21] = system: rat; details: Combined chronic toxicity/carcinogenicity; other; Oral; Feed; dose end: 2 year; group: systemic; systemic / clinical chemistry / peroxisomal beta-oxidation analysis / peroxisomal beta-oxidation analysis + systemic / organ weight / liver…
# [22] = systemic / in life observation / clinical signs / hyperactivity + systemic / in life observation / mortality / mortality + systemic / …
# [23] = systemic / clinical chemistry / albumin / albumin + systemic / clinical chemistry / protein / protein + systemic / hematology / mean …
# [24] = systemic / in life observation / clinical signs / lacrimation + systemic / hematology / mean corpuscular (cell) volume (mcv) / mean …
# [25] = systemic / in life observation / body weight / body weight + systemic / in life observation / clinical signs / alopecia + systemic / in life…
# [26] = systemic / organ weight / liver / absolute + systemic / organ weight / liver / relative to body weight + systemic / in life observation / …
# [27] = systemic / organ weight / liver / relative to body weight
# [28] = systemic / pathology microscopic / liver / hypertrophy
# [29] = systemic / organ weight / testes / nos + systemic / pathology microscopic / testes / atrophy
# [30] = systemic / organ weight / testes / nos + systemic / pathology microscopic / testes / atrophy + systemic / in life observation / body weight…
# [31] = systemic / pathology microscopic / liver / hypertrophy + systemic / clinical chemistry / alanine aminotransferase (alt/sgpt) / alanine …
# [32] = systemic / pathology microscopic / liver / hypertrophy + systemic / clinical chemistry / alkaline phosphatase (alp/alk) / alkaline …
# [33] = systemic / clinical chemistry / hepatic mixed function oxidase (mfo) assay / hepatic mixed function oxidase (mfo) assay
# [34] = group: developmental, developmental / developmental malformation / bone / cervical + developmental / developmental malformation / bone / short supernumerary
# [35] = group: maternal, systemic / in life observation / clinical signs / fur (altered appearance) + systemic / in life observation / clinical signs / salivation
# [36] = group: maternal, systemic / in life observation / clinical signs / fur (altered appearance) + systemic / in life observation / clinical signs / salivation + …
# [37] = group: offspring, systemic / in life observation / body weight / offspring (pup) weight gain
# [38] = group: offspring, systemic / in life observation / body weight / offspring (pup) weight gain + developmental / offspring survival late / viability index / …
# [39] = group: parental, systemic / organ weight / liver / nos + systemic / organ weight / liver / relative to body weight + systemic / in life observation / food …
# [40] = group: parental, systemic / organ weight / liver / nos + systemic / organ weight / liver / relative to body weight + systemic / pathology microscopic / liver…
# [41] = group: reproductive, reproductive / offspring survival early / birth index / live birth index
# [42] = systemic / clinical chemistry / hepatic mixed function oxidase (mfo) assay / hepatic mixed function oxidase (mfo) assay + systemic / …
# [43] = group: developmental, developmental / offspring survival late / viability index / viability index
# [44] = group: maternal, reproductive / reproductive performance / resorptions / resorptions + systemic / in life observation / body weight / body weight + systemic…
# [45] = systemic / pathology microscopic / adrenal gland / hypertrophy + systemic / pathology microscopic / liver / hypertrophy + systemic / …
# [46] = group: developmental, developmental / developmental malformation / bone / full supernumerary
# [47] = group: maternal, systemic / in life observation / body weight / body weight gain
# [48] = systemic / organ weight / liver / absolute + systemic / organ weight / liver / relative to body weight + systemic / pathology microscopic / …
# [49] = group: offspring, developmental / offspring survival late / lactation index / lactation index + developmental / offspring survival late / [other] / [other] + …
# [50] = group: parental, systemic / in life observation / body weight / body weight + systemic / in life observation / body weight / body weight gain + systemic / in…
# [51] = group: parental, systemic / organ weight / kidney / relative to body weight + systemic / organ weight / liver / absolute + systemic / organ weight / liver / …
structure (smiles),measurement,setting,value
C[N+](C)(C)Cc1ccccc1.[Cl-] [Benzyltrimethylammonium chloride],LEL,[1]; systemic / clinical chemistry / protein / protein,25 mg/kg/day
same,NEL,[1]; systemic / clinical chemistry / protein / protein + systemic / in life observation / mortality / mortality + systemic / organ weight / heart…,12.5 mg/kg/day
same,LOAEL,[1]; [22],> 100 mg/kg/day
same,NOAEL,[1]; [22],≥ 100 mg/kg/day
same,LOAEL,[2]; [23],> 100 mg/kg/day
same,NOAEL,[2]; [23],≥ 100 mg/kg/day
same,LEL,[2]; [24],12.5 mg/kg/day
same,NEL,[2]; [24],< 12.5 mg/kg/day
CCCCCCCCOC(C)=O [Octyl acetate],LOAEL,[3]; [25],> 1000 mg/kg/day
same,NEL,[3]; [25],100 mg/kg/day
same,NOAEL,[3]; [25],≥ 1000 mg/kg/day
same,LEL,[3]; systemic / in life observation / body weight / body weight + systemic / in life observation / food consumption / food consumption,500 mg/kg/day
same,NEL,[4]; systemic / in life observation / body weight / body weight + systemic / in life observation / food consumption / food consumption + systemic…,100 mg/kg/day
same,LOAEL,[4]; [26],> 1000 mg/kg/day
same,NOAEL,[4]; [26],≥ 1000 mg/kg/day
same,LEL,[4]; [27],500 mg/kg/day
CCCCC(C#N)(Cn1cncn1)c1ccc(Cl)cc1 (stereo not drawn) [Myclobutanil],LEL,[5]; [27],0.4 mg/kg/day
same,NEL,[5]; [27],< 0.4 mg/kg/day
same,LOAEL,[5]; [28],14.3 mg/kg/day
same,NOAEL,[5]; systemic / pathology microscopic / liver / hypertrophy + systemic / organ weight / liver / relative to body weight + systemic / organ weight…,3.09 mg/kg/day
same,LEL,[6]; [29],9.84 mg/kg/day
same,LOAEL,[6]; [29],9.84 mg/kg/day
same,NEL,[6]; [30],2.49 mg/kg/day
same,NOAEL,[6]; [30],2.49 mg/kg/day
same,LOAEL,[7]; [28],14.3 mg/kg/day
same,NEL,[7]; [31],3.09 mg/kg/day
same,NOAEL,[7]; [31],3.09 mg/kg/day
same,LEL,[7]; systemic / pathology microscopic / liver / hypertrophy + systemic / hematology / mean corpuscular hemoglobin (mch) / mean corpuscular …,14.3 mg/kg/day
same,LEL,[8],394 mg/kg/day
same,LOAEL,[8],394 mg/kg/day
same,NEL,[8],< 394 mg/kg/day
same,NOAEL,[8],< 394 mg/kg/day
same,LOAEL,[9]; [28],5 mg/kg/day
same,NEL,[9]; [32],0.25 mg/kg/day
same,NOAEL,[9]; [32],0.25 mg/kg/day
same,LEL,[9]; systemic / pathology microscopic / liver / hypertrophy + systemic / pathology microscopic / kidney / inflammation,5 mg/kg/day
same,LEL,[10]; [33],15 mg/kg/day
same,NEL,[10]; [33],< 15 mg/kg/day
same,LOAEL,[10]; systemic / organ weight / kidney / nos + systemic / organ weight / liver / nos,150 mg/kg/day
same,NOAEL,[10]; systemic / organ weight / kidney / nos + systemic / organ weight / liver / nos + systemic / clinical chemistry / albumin-globulin ratio / …,50 mg/kg/day
same,LEL,[11]; [34],313 mg/kg/day
same,LOAEL,[11]; [34],313 mg/kg/day
same,NEL,[11]; [34],93.8 mg/kg/day
same,NOAEL,[11]; [34],93.8 mg/kg/day
same,LEL,[11]; [35],313 mg/kg/day
same,LOAEL,[11]; [35],313 mg/kg/day
same,NEL,[11]; [36],93.8 mg/kg/day
same,NOAEL,[11]; [36],93.8 mg/kg/day
same,LEL,[12],125 mg/kg/day
same,LOAEL,[12],> 125 mg/kg/day
same,NEL,[12],< 125 mg/kg/day
same,NOAEL,[12],≥ 125 mg/kg/day
same,NEL,[13]; [37],10 mg/kg/day
same,NOAEL,[13]; [37],10 mg/kg/day
same,LEL,[13]; [38],50 mg/kg/day
same,LOAEL,[13]; [38],50 mg/kg/day
same,NEL,[13]; [39],2.5 mg/kg/day
same,NOAEL,[13]; [39],2.5 mg/kg/day
same,LEL,[13]; [40],10 mg/kg/day
same,LOAEL,[13]; [40],10 mg/kg/day
same,LEL,[13]; [41],10 mg/kg/day
same,LOAEL,[13]; [41],50 mg/kg/day
same,NEL,[13]; [41],2.5 mg/kg/day
same,NOAEL,[13]; [41],10 mg/kg/day
same,LEL,[14]; [33],16.5 mg/kg/day
same,LOAEL,[14]; [33],16.5 mg/kg/day
same,NEL,[14]; [42],3.2 mg/kg/day
same,NOAEL,[14]; [42],3.2 mg/kg/day
same,LEL,[15]; [43],200 mg/kg/day
same,LOAEL,[15]; [43],200 mg/kg/day
same,NEL,[15]; [43],60 mg/kg/day
same,NOAEL,[15]; [43],60 mg/kg/day
same,LEL,[15]; [44],200 mg/kg/day
same,LOAEL,[15]; [44],200 mg/kg/day
same,NEL,[15]; [44],60 mg/kg/day
same,NOAEL,[15]; [44],60 mg/kg/day
same,LOAEL,[16]; [45],150 mg/kg/day
same,NEL,[16]; [45],45 mg/kg/day
same,NOAEL,[16]; [45],45 mg/kg/day
same,LEL,[16]; systemic / pathology microscopic / adrenal gland / hypertrophy + systemic / pathology microscopic / liver / necrosis + systemic / pathology …,150 mg/kg/day
"O=C([O-])C(F)(F)C(F)(F)C(F)(F)C(F)(F)C(F)(F)C(F)(F)C(F)(F)F.[NH4+] [PFOA, ammonium salt]",LEL,[17]; [46],50 mg/kg/day
same,LOAEL,[17]; [46],> 50 mg/kg/day
same,NEL,[17]; [46],5 mg/kg/day
same,NOAEL,[17]; [46],≥ 50 mg/kg/day
same,LEL,[17]; [47],50 mg/kg/day
same,LOAEL,[17]; [47],50 mg/kg/day
same,NEL,[17]; [47],5 mg/kg/day
same,NOAEL,[17]; [47],5 mg/kg/day
same,NEL,[18]; systemic / clinical chemistry / alkaline phosphatase (alp/alk) / alkaline phosphatase (alp/alk) + systemic / clinical chemistry / urea …,0.5 mg/kg/day
same,LEL,[18]; systemic / organ weight / kidney / absolute,1.5 mg/kg/day
same,LOAEL,[18]; [48],> 50 mg/kg/day
same,NOAEL,[18]; [48],≥ 50 mg/kg/day
same,LEL,[19]; [49],30 mg/kg/day
same,LOAEL,[19]; [49],> 30 mg/kg/day
same,NEL,[19]; [49],10 mg/kg/day
same,NOAEL,[19]; [49],≥ 30 mg/kg/day
same,LOAEL,[19]; [50],> 30 mg/kg/day
same,NOAEL,[19]; [50],≥ 30 mg/kg/day
same,LEL,[19]; [51],1 mg/kg/day
same,NEL,[19]; [51],< 1 mg/kg/day
same,LEL,[20],1.3 mg/kg/day
same,LOAEL,[20],> 14.2 mg/kg/day
same,NEL,[20],< 1.3 mg/kg/day
same,NOAEL,[20],≥ 14.2 mg/kg/day
same,LEL,[21],15 mg/kg/day
same,LOAEL,[21],> 15 mg/kg/day
same,NEL,[21],< 15 mg/kg/day
same,NOAEL,[21],≥ 15 mg/kg/day
